In US20040254173A1, “Modulation of dopamine responses with substituted (S)-2,3-benzodiazepines” (priority 2003, published 2004):

Tests used:
[1] = tested on: apomorphine-induced hypothermia, stereotypies and climbing; assay: Low Dose Apomorphine Test in the mouse; format: in vivo; details: for STEREOTYPY (intensity score), 20 min after apomorphine, mean ± s.e.m. / STEREOTYPY (intensity score), 50 min after apomorphine, mean ± s.e.m.: 4 point scale (0-3); for CLIMBING (No. of mice), 20 minutes after apomorphine / CLIMBING (No. of mice), 50 minutes after apomorphine: 6 mice per group; for Rectal Temperature, 30 min after apomorphine, mean ± s.e.m. / Rectal Temperature, 60 min after apomorphine, mean ± s.e.m. / Rectal Temperature, before apomorphine, mean ± s.e.m.: mouse; for Rectal Temperature, 30 min after apomorphine, mean change from control / Rectal Temperature, 60 min after apomorphine, mean change from control / STEREOTYPY (intensity score), 20 min after apomorphine, mean change from control / STEREOTYPY (intensity score), 50 min after apomorphine, mean change from control: vs vehicle; for Rectal Temperature, before apomorphine, mean ± s.e.m.: 30 min after test substance
From the text: Racemic tofisopam, (R)-tofisopam and (S)-tofisopam were investigated in the Low Dose Apomorphine Test in the mouse to evaluate their pro- or anti-dopaminergic activity following intraperitoneal (i.p.) administration of apomorphine. Apomorphine, at a low dose, induces hypothermia, stereotypies and climbing. All three of these symptoms are potentiated by dopaminergic agonists and antagonized by dopamine antagonists, such as classical neuroleptics. The Low Dose Apomorphine Test, thus serves to detect pro- or antidopaminergic activity. The test was performed according to the protocols described by Chermat and Poncelet. See, Chermat R., Poncelet M., “Antagonisme des redressements, des stéréotypies et de l'hypotheimie induits par 1 ou 16 mg.kg-1 d'apomorphine,” J. Pharmacol., 14, 93-97, 1983.
Male mice of Rj: NMRI strain, 23-26 g body weight range were supplied by Elevage Janvier, 53940 Le Genest-Saint-Isle, France. The animals were delivered to the laboratory at least 3 days before the experiment and, upon arrival, were housed 10 per cage in macrolon cages (25×19×13 cm) containing wood shavings (Litalabo-SPPS, 95100 Argenteuil, France) with free access to food (UAR 113-UAR, 91360 Epinay-sur-Orge, France) and tap water (i.e. non-fasted) until tested. The animal house was maintained under artificial lighting (12 hours) between 7.00 and 19.00 in a controlled ambient temperature of 21±1° C., and relative humidity maintained at 40-70%.
The different treatments were equally distributed between the animals. During the experiment, each animal within a cage received the same treatment. Animals within a cage were individually marked on the tail with an indelible pen.
The experiment was conducted blind with treatment vials labeled A, B, C etc., according to a standardized coding procedure. The evaluation of the different treatments was balanced over time by testing successive series of individual animals from each treatment group in a fixed rotation (A, B, C, etc.). Animals were sacrificed at the end of the experiment by exposure to CO2.
Three compounds, racemic tofisopam, (R)-tofisopam and (S)-tofisopam were tested in the Low Dose Apomorphine Test. Each of these three compounds was dosed as a dispersion in 0.2% hydroxypropylmethylcellulose (HPMC) (Sigma), in sterile physiological saline (Laboratoire Aguettant).
Two reference standards were also dosed. Bromocriptine, methanesulfonate (Sigma), a known dopamine agonist, and haloperidol (Sigma), a known dopamine antagonist, were dispersed in 0.2% HPMC in sterile physiological saline.
Apomorphine hydrochloride, the dopamine mimetic employed in the assay, was dissolved in water for injectable preparation (Laboratoire Aguettant). Dosing: All of the dosed substances were administered in a volume of 10 ml/kg. The doses are expressed in mg/kg of supplied substance.
6 mice were studied per group. The test was performed blind.
Racemic tofisopam, (R)-tofisopam and (S)-tofisopam were administered at doses of 16, 32 and 64 mg/kg, administered intraperitonealy (i.p.), 30 minutes prior to administration of apomorphine.
The rectal temperature of the mice was measured prior to apomorphine dosing using a rectal probe (Physitemp Instruments Digital Laboratory Thermometer Model BAT-12). The mice were then placed in individual Plexiglas cages (10×6×4 cm) attached with the opening against a vertical wire grid.
The mice were then injected subcutaneously (s.c.) with apomorphine (1 mg/kg). Rectal temperature was measured 30 and 60 minutes after the injection of apomorphine.
The intensity of stereotypies (sniffing, licking, gnawing), were scored at 20 minutes and 50 minutes after injection of apomorphine on a 4 point scale (0-3). The presence (1) or absence (0) of climbing against the wire grid wall, were also assessed 20 and 50 minutes after injection of apomorphine.
The reference standards bromocriptine (16 mg/kg) and haloperidol (0.5 mg/kg), were administered under the same experimental conditions.

peripheral BZ receptors = peripheral BZ receptors (Homo sapiens, UniProt P30536); details: cited from earlier work
Sequence of peripheral BZ receptors (P30536 whole entry): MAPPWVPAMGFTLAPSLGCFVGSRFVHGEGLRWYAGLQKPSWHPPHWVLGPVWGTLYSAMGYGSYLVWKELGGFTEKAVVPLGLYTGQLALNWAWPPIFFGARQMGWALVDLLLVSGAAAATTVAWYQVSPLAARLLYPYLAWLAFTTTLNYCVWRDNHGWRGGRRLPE

central BZ receptors = details: cited from earlier work
[2] = 16 mg/kg i.p. 30 min before apomorphine 1 mg/kg s.c.
[3] = 32 mg/kg i.p. 30 min before apomorphine 1 mg/kg s.c.
[4] = 64 mg/kg i.p. 30 min before apomorphine 1 mg/kg s.c.

SMILES: CCC1C(C)=NN=C(c2ccc(OC)c(OC)c2)c2cc(OC)c(OC)cc21 (racemic) [Racemic tofisopam, racemic-1-(3,4-dimethoxyphenyl)-4-methyl-5-ethyl-7,8-dimethoxy-5H-2,3-benzodiazepine]
- STEREOTYPY (intensity score), 20 min after apomorphine, mean ± s.e.m. [1, 2]: 3.0 ± 0.0
- STEREOTYPY (intensity score), 50 min after apomorphine, mean ± s.e.m. [1, 2]: 0.7 ± 0.2
- CLIMBING (No. of mice), 20 minutes after apomorphine [1, 2]: 6 No. of mice
- CLIMBING (No. of mice), 50 minutes after apomorphine [1, 2]: 3 No. of mice
- Rectal Temperature, 30 min after apomorphine, mean ± s.e.m. [1, 2]: 35.3 ± 0.6 °C
- Rectal Temperature, 60 min after apomorphine, mean ± s.e.m. [1, 2]: 36.9 ± 0.3 °C
- Rectal Temperature, 30 min after apomorphine, mean change from control [1, 2]: +0.2 °C
- Rectal Temperature, 60 min after apomorphine, mean change from control [1, 2]: +0.2 °C
- STEREOTYPY (intensity score), 20 min after apomorphine, mean change from control [1, 2]: +0.8
- STEREOTYPY (intensity score), 50 min after apomorphine, mean change from control [1, 2]: −0.3
- Rectal Temperature, before apomorphine, mean ± s.e.m. ([1]; 16 mg/kg i.p.): 37.3 ± 0.1 °C
- STEREOTYPY (intensity score), 20 min after apomorphine, mean ± s.e.m. [1, 3]: 2.8 ± 0.2
- STEREOTYPY (intensity score), 50 min after apomorphine, mean ± s.e.m. [1, 3]: 0.8 ± 0.3
- CLIMBING (No. of mice), 20 minutes after apomorphine [1, 3]: 6 No. of mice
- CLIMBING (No. of mice), 50 minutes after apomorphine [1, 3]: 5 No. of mice
- Rectal Temperature, 30 min after apomorphine, mean ± s.e.m. [1, 3]: 34.3 ± 0.5 °C
- Rectal Temperature, 60 min after apomorphine, mean ± s.e.m. [1, 3]: 36.6 ± 0.3 °C
- Rectal Temperature, 30 min after apomorphine, mean change from control [1, 3]: −0.8 °C
- Rectal Temperature, 60 min after apomorphine, mean change from control [1, 3]: −0.1 °C
- STEREOTYPY (intensity score), 20 min after apomorphine, mean change from control [1, 3]: +0.6
- STEREOTYPY (intensity score), 50 min after apomorphine, mean change from control [1, 3]: −0.2
- Rectal Temperature, before apomorphine, mean ± s.e.m. ([1]; 32 mg/kg i.p.): 37.1 ± 0.2 °C
- STEREOTYPY (intensity score), 20 min after apomorphine, mean ± s.e.m. [1, 4]: 2.3 ± 0.2
- STEREOTYPY (intensity score), 50 min after apomorphine, mean ± s.e.m. [1, 4]: 1.3 ± 0.2
- CLIMBING (No. of mice), 20 minutes after apomorphine [1, 4]: 6 No. of mice
- CLIMBING (No. of mice), 50 minutes after apomorphine [1, 4]: 4 No. of mice
- Rectal Temperature, 30 min after apomorphine, mean ± s.e.m. [1, 4]: 33.9 ± 0.5 °C
- Rectal Temperature, 60 min after apomorphine, mean ± s.e.m. [1, 4]: 36.3 ± 0.3 °C
- Rectal Temperature, 30 min after apomorphine, mean change from control [1, 4]: −1.2 °C
- Rectal Temperature, 60 min after apomorphine, mean change from control [1, 4]: −0.4 °C
- STEREOTYPY (intensity score), 20 min after apomorphine, mean change from control [1, 4]: +0.1
- STEREOTYPY (intensity score), 50 min after apomorphine, mean change from control [1, 4]: +0.3
- Rectal Temperature, before apomorphine, mean ± s.e.m. ([1]; 64 mg/kg i.p.): 37.2 ± 0.2 °C
- behaviour on apomorphine-induced hypothermia (rectal temperature) ([1]; 64 mg/kg, thirty and sixty minute time points, trend not statistically significant): weak dopamine antagonist
- behaviour on apomorphine-induced stereotypies ([1]; 16 and 32 mg/kg, twenty minute time point, significant only at 16 mg/kg): strong dopamine agonist
- binding to peripheral BZ receptors (peripheral BZ receptors): binds only weakly
- interaction with central BZ receptors (central BZ receptors): does not interact
